Activity calls are given as the source filed them. No cut-off for these calls is given here.
How the values were obtained:
HL-60 [1] = assay: Antiproliferative activity against human HL60 cells assessed as reduction in cell viability after 48 hrs by MTT assay; type: functional, cell-based; conditions: HL-60, 48 h
T-24 [2] = assay: Induction of apoptosis in human T24 cells assessed as increase in PARP cleavage at 11 to 22 uM by Western blot analysis; type: functional, cell-based
HL-60 [3] = assay: Induction of apoptosis in human HL60 cells assessed as increase in PARP cleavage at 11 to 22 uM by Western blot analysis; type: functional, cell-based
HL-60 [4] = assay: Induction of DNA damage in human HL60 cells assessed as increase in gammaH2AX expression at 11 to 22 uM by Western blot analysis; type: functional, cell-based
HL-60 [5] = assay: Potency index, ratio of aphidicolin IC50 to compound IC50 for antiproliferative activity against human HL60 cells; type: functional
T-24 [6] = assay: Antiproliferative activity against human T24 cells assessed as reduction in cell viability after 48 hrs by MTT assay; type: functional, cell-based; conditions: T-24, 48 h
T-24 [7] = assay: Induction of DNA damage in human T24 cells assessed as increase in gammaH2AX expression at 11 to 22 uM by Western blot analysis; type: functional, cell-based

With `C[C@@]1(CO)[C@H](O)CC[C@@]2(C)[C@H]1C(=O)C[C@H]1C[C@@H]3C[C@@]12CC[C@]3(O)CO` the IC50 (HL-60 [1]) was 6.1 µM, the Activity (T-24 [2]) was “Active” and the Activity (HL-60 [3]) was “Active”. For the same compound, the Activity (HL-60 [4]) was “Active”, the “Ratio IC50” value (HL-60 [5]) was 4 and the IC50 (T-24 [6]) was 2.5 µM. For the same compound, the Activity (T-24 [7]) was “Active”.
Compound `C[C@@]1(CO)[C@H](O)CC[C@@]2(C)[C@H]1CC[C@H]1C[C@@H]3C[C@@]12CC[C@]3(O)CO` [APHIDICOLIN] has an IC50 (HL-60 [1]) of 24.4 µM.
